Reference: EPA's ToxValDB 9.5 (doi:10.2903/j.efsa.2017.4718)

Columns and labels:
[1] = test system: Anatidae; conditions: not reported; oral; feed; no effects
[2] = test system: Gallus gallus; conditions: subchronic; duration: 5 weeks; oral; diet; M; Chicken; no effects
[3] = test system: Equus caballus; conditions: subchronic; duration: 40 days; no effects
[4] = test system: Meleagris sp.; conditions: subchronic; duration: 12 weeks; oral; feed; M; no effects
[5] = test system: Sus scrofa; conditions: subchronic; duration: 3 months; oral; diet; Not specified; food consumption
[6] = test system: Neovison vison; conditions: short-term; duration: 28 days; oral; diet; F; food consumption
[7] = test system: Oryctolagus sp.; conditions: short-term; duration: 21 days; oral; diet; M; no effects
[8] = test system: Felidae; conditions: short-term; duration: 14 days; oral; diet; Cat; body weight
[9] = test system: Bovidae
[10] = test system: Cyprinus carpio; conditions: subchronic; duration: 6 weeks; oral; feed; histopathology: nonneoplastic
[11] = test system: Mus musculus
[12] = test system: Ovis sp.; conditions: short-term; duration: 28 days; oral; diet; food consumption
[13] = test system: Canidae; conditions: short-term; duration: 14 days; oral; diet; Dog Other; body weight

`CC1=C[C@H]2O[C@@H]3[C@H](O)C[C@](C)([C@@]2(CO)[C@H](O)C1=O)[C@@]31CO1` [Vomitoxin] showed an NOAEL [1] of 7 mg/kg, an NOAEL [2] of 5 mg/kg-day and an NOAEL [3] of 36 mg/kg. The NOAEL [4] was 6.5 mg/kg, the NOAEL [5] was 0.7 mg/kg-day and the NOAEL [6] was 1.18 mg/kg-day. The NOAEL [7] was 4.3 mg/kg-day, the NOAEL [8] was 6 mg/kg-day and the NOAEL ([9]; chronic, duration: 126 days, oral, diet, food consumption) was 10 mg/kg-day. The NOAEL ([9]; chronic, duration: 166 days, oral, diet, food consumption) was 18 mg/kg-day, the NOAEL ([9]; subchronic, duration: 13 weeks, F, no effects) was 5.24 mg/kg-day and the NOAEL [10] was 0.6 mg/kg. For the same molecule, the LEL ([11]; chronic, duration: 2 years, immunology) was at least 0.0016 mg/kg-day, the NOAEL ([11]; chronic, duration: 2 years, oral, diet, M/F, B6C3F1, food consumption) was 0.1 mg/kg-day and the NOAEL ([11]; developmental, development) was 0.5 mg/kg-day. The NOAEL ([11]; reproduction developmental, oral, diet, M/F, reproduction) was 0.38 mg/kg-day, the NOAEL ([11]; short-term, duration: 14 days, oral, diet, M/F, BALB/cAnCr, hematological) was 0.1 mg/kg-day and the NOAEL [12] was 16 mg/kg-day. The NOAEL [13] was 4 mg/kg-day.
